# Laboratory results published in the supplement of paper PMC10949913.
# Assays:
# Conditions in all cases: 48 h
# [1] = test system: NCI-H295R; experiment: area under concentration-response curve (viability) (AUC (a.u.)); higher = less active
# In short: (§1)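 Three adrenocortical carcinoma cell lines were plated in 1,536-well plates at 500–1,000 cells/well in 5 µL medium, and 23 nL of each library compound was added at 11 concentrations. After 48 h, CellTiter-Glo was applied for 15 minutes at room temperature before luminescence was read. Each plate's signals were normalised to vehicle and empty-well controls. AC50 and area under the curve were taken from fitted concentration-response curves, with only inhibitory or non-responding curve classes retained.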
# [2] = test system: CU-ACC1; experiment: as above
# In short: as §1
# [3] = test system: CU-ACC1; experiment: AC50 viability; higher = less potent
# In short: as §1
# [4] = test system: CU-ACC2; experiment: area under concentration-response curve (viability) (AUC (a.u.)); higher = less active
# In short: as §1
Compound,area under concentration-response curve [1],area under concentration-response curve [2],AC50 viability [3] [µM],area under concentration-response curve [4]
CC(=O)N(O)CCCCCNC(=O)CCC(=O)N(O)CCCCCNC(=O)CCC(=O)N(O)CCCCCN,432,379,11.8,–
[O-][n+]1cccc(-c2nc3c(Cl)cccc3cc2[C@@H](Nc2ncnc3cccnc23)C(F)(F)F)c1,–,332,26.3,368
O=C(O)CC[C@H]1CC[C@@](c2cc(F)ccc2F)([S+](=O)([O-])c2ccc(Cl)cc2)CC1,255,359,0.00105,–
O=C(NO)C1(C[S+](=O)([O-])c2ccc(Oc3ccc(Cl)cc3)cc2)CCOCC1,–,450,16.6,553
CN(C)Cc1ccc(-c2nc3cccc4c3n2CCNC4=O)cc1,–,294,33.2,216
CN(C)c1ccccc1CN1CCCN(Cc2ccccc2N(C)C)C1c1ccncc1,444,448,8.33,–
CC(C)c1c(C(=O)Nc2ccccc2)c(-c2ccccc2)c(-c2ccc(F)cc2)n1CC[C@@H](O)C[C@@H](O)CC(=O)O,635,544,6.45,–
COC1CCC(C(=O)c2ccc3nc4c(cc3c2)CCCO4)CC1 (centres undefined),–,460,16.6,501
CCC1CCCCN1C(=O)n1ncc(C(O)(c2ccccc2)c2ccccc2)n1 (centres undefined),–,435,18.6,571
COC[C@H]1OC(=O)C2=COC3=C2[C@@]1(C)\C4=C(C5CCC(=O)[C@@]5(C)C[C@H]4OC(C)=O)/C3=O (some centres undefined),–,446,16.6,549
C[C@H](NC(=O)[C@@H](O)c1cc(F)cc(F)c1)C(=O)N[C@@H]1C(=O)N(C)c2ccccc2-c2ccccc21,424,381,26.3,–
CCc1ccc(/C=C2/SC(=S)NC2=O)cc1,394,396,2.63,–
O=C(Nc1ccc(OC(F)(F)Cl)cc1)c1cnc(N2CC[C@@H](O)C2)c(-c2ccn[nH]2)c1,–,442,33.2,574
C[C@@H]1CC2C3C[C@H](F)C\4=C\C(=O)\C=C/[C@]4(C)[C@@]3(F)[C@@H](O)C[C@]2(C)[C@@]1(OC(=O)C5=CC=CO5)C(=O)SCF (some centres undefined),–,468,41.7,592
CCOC(=O)c1c(CSc2ccccc2)n(C)c2cc(Br)c(O)c(CN(C)C)c12,–,476,37.2,600
N#Cc1ccc(COC[C@H]2O[C@@H](n3c(NCc4ccc(Cl)c(Cl)c4)nc4c(N)ncnc43)[C@H](O)[C@@H]2O)cc1,494,464,20.9,–
NC(=O)c1noc([C@H](CCCC2CCCCC2)CC(=O)NO)n1,–,446,41.7,531
COc1ccccc1N1CCN(CCN(C(=O)C2CCCCC2)c2ccccn2)CC1,378,351,20.9,–
FC(F)(F)c1ccc(Nc2nc3cc(Oc4ccnc(-c5ncc(C(F)(F)F)[nH]5)c4)ccc3[nH]2)cc1,–,479,4.68,603
CO[C@H]1C[C@@H]2CC[C@@H](C)[C@@](O)(O2)C(=O)C(=O)N2CCCC[C@H]2C(=O)O[C@H]([C@H](C)C[C@@H]2CC[C@@H](OCCO)[C@H](OC)C2)CC(=O)[C@H](C)/C=C(/C)[C@@H](O)[C@@H](OC)C(=O)[C@H](C)C[C@H](C)\C=C/C=C\C=C/1C,–,421,18.6,439
CC1Oc2cc(cnc2N)-c2c(nn(C)c2C#N)CN(C)C(=O)c2ccc(F)cc21 (centres undefined),–,463,6.61,485
Cc1c(NC(=O)OCC2COCCN2)cn2ncnc(Nc3ccc4c(cnn4Cc4cccc(F)c4)c3)c12 (centres undefined),–,433,23.5,–
O=C1CSC(=O)N1C(CCc1ccncc1)COc1ccc(-c2cccc([N+](=O)[O-])c2)cc1 (centres undefined),396,309,2.63,–
CN(C)CCN1C(=O)c2cccc3cc(N)cc(c23)C1=O,–,452,26.3,–
O=C(/C=C/c1ccc(Cl)cc1)N1CCC2(CC1)CN(Cc1ccc(Cl)c(Cl)c1)C(=O)O2,–,432,20.9,–

Compound,area under concentration-response curve [1],area under concentration-response curve [2],AC50 viability [3] [µM],area under concentration-response curve [4]
CC(C)[N]1C=C(C)C2=C1C=C(C=C2C(=O)NC\C3=C(C)\C=C(C)/NC3=O)C4=CC=C(N=C4)N5CCN(C)CC5,–,491,23.5,–
Cc1nc2cc(C(=O)N3CCC4(CC3)CC(=O)c3c(cnn3C(C)C)C4)ccc2[nH]1,568,467,26.3,–
O=C(O)[C@H](O)[C@@H](O)[C@H](O[C@@H]1O[C@H](CO)[C@H](O)[C@H](O)[C@H]1O)[C@H](O)CO,307,342,0.00118,–
OCCOc1ccc(/C(=C(/CCCl)c2ccccc2)c2ccccc2)cc1,–,470,23.5,–
CCn1c(-c2nonc2N)nc2cncc(CNC3CCNCC3)c21,526,477,14.8,–
COC[C@H]1OC(=O)C2=COC3=C2[C@@]1(C)\C4=C(\[C@@H]5CC[C@H](O)[C@@]5(C)C[C@H]4OC(C)=O)C3=O,–,311,4.17,–
ClC1=C[NH]N=C1C\2NC(=N\C3=C2C(=O)CCC3)/NC4=NC5=CC=CC=C5O4 (centres undefined),–,426,41.7,–
CCCCCNC(=N)N/N=C/c1c[nH]c2ccc(OC)cc12,–,416,14.8,–
C[S+](=O)([O-])c1ccc(-c2cnc(NCc3ccco3)n3cnnc23)cc1,–,357,2.09,–
CN(C)CCCOc1ccc(-c2ccc3ncc4c(c3c2)n(C2CCOCC2)c(=O)n4C)cn1,–,487,11.5,–
C[C@](O)(COc1ccc(C#N)cc1)C(=O)Nc1ccc(C#N)c(C(F)(F)F)c1,248,322,0.00118,–
CC(=O)O[C@@]1(CC[C@H]2[C@@H]3\C=C(Cl)/C4=C/C(=O)[C@@H]5C[C@@H]5[C@]4(C)[C@H]3CC[C@]12C)C(C)=O,304,325,2.35,–
Cc1cc(C)c(C/N=C(\O)c2cc(-c3ccc(N4CCN(C)CC4)nc3)cc3c2c(C)cn3C(C)C)c(O)n1,–,490,29.5,–
Nc1ncnc(Nc2ccc(OCc3ccccc3)c(Cl)c2)c1/C=N/OCCN1CCOCC1,–,324,20.9,–
O=C(N[C@H]1CCC[C@H](CO)C1)C1CCN(c2nc3cc(Cl)c(-c4ccc(Cl)cc4)cc3o2)CC1,–,484,20.9,–
c1nc2c(NC3CCCCC3)nc(Nc3ccc(N4CCOCC4)cc3)nc2[nH]1,274,283,0.00118,–
N[C@@H]1C[C@H]1c1ccccc1,353,341,0.00186,–
O=C(NO)c1cnc(NC2(c3cccc(F)c3)CCCCC2)nc1,538,474,20.9,–
OC1=CC=C(C=C1)C/2=C/C3=C(OC2)C=C(O)C=C3,471,436,18.6,–
O=C1N\N=C(\CC2=CC=CC(=C2)C(=O)N3CCN(CC3)C4=NC=CC=C4C#N)C5=CC=CC=C15,548,450,18.6,–
Cc1cc2c(F)c(Oc3ncnn4cc(OC[C@@H](C)O)c(C)c34)ccc2[nH]1,329,317,0.00263,–
C[C@@H](Nc1cc(F)cc(F)c1)c1cc(C(=O)N(C)C)cc2c(=O)cc(N3CCOCC3)oc12,–,466,13.2,–
CN1CC[C@H]([C@@H]1CO)C2=C3OC(=C/C(=O)C3=C(O)C=C2O)\C4=C(Cl)C=C(C=C4)C(F)(F)F,538,477,14.8,–
CN(C)Cc1cccc(N/C(=C2\C(=O)Nc3cc(C(N)=O)ccc32)c2ccccc2)c1,–,420,23.5,–
CC1=C(OC2=CC3=NC=N[N]3C=C2)C=CC(=C1)NC4=NC=NC5=C4C=C(N\C6=N\C(C)(C)CO6)C=C5,–,402,0.00296,–
